How the values were obtained:
[1] = tested on: Botryotinia fuckeliana (Botrytis cinerea); experiment: Botryotinia fuckeliana (Botrytis cinerea) / liquid culture (gray mould); format: cell-based; conditions: Vogels broth, 24° C., 3-4 days after application, read-out: control of Botryotinia fuckeliana (inhibition of growth, photometric)
Protocol: Example B2: Botryotinia fuckeliana (Botrytis cinerea)/Liquid Culture (Gray Mould) Conidia of the fungus from cryogenic storage are directly mixed into nutrient broth (Vogels broth). After placing a (DMSO) solution of test compound into a microtiter plate (96-well format), the nutrient broth containing the fungal spores is added. The test plates are incubated at 24° C. and the inhibition of growth is determined photometrically 3-4 days after application. […] […]-190.

[2] = tested on: Glomerella lagenarium (Colletotrichum lagenarium); experiment: Glomerella lagenarium (Colletotrichum lagenarium) / liquid culture (anthracnose); format: cell-based; conditions: Colletotrichum orbiculare, PDB potato dextrose broth, 24° C., 3-4 days after application, read-out: control of Glomerella lagenarium (inhibition of growth, photometric)
Method in brief: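 Fungal growth inhibition measured photometrically 3-4 days post-application at 24° C. Spores were mixed directly into potato dextrose broth and dispensed onto test compound supplied in DMSO.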

Alternaria solani = Alternaria solani / tomato / leaf disc (early blight); format: in vivo; conditions: foliar, tomato leaf disks cv. Baby, inoculated 2 days after application, assessed 5-7 days after application, read-out: control of Alternaria solani (percent disease control compared to untreated)
Protocol: Example B1: Alternaria solani/Tomato/Leaf Disc (Early Blight) Tomato leaf disks cv. Baby are placed on agar in multiwell plates (24-well format) and sprayed with the formulated test compound diluted in water. The leaf disks are inoculated with a spore suspension of the fungus 2 days after application. The inoculated leaf disks are incubated at 23° C./21° C. […] […]-185.

[3] = tested on: Blumeria graminis f. sp. tritici (Erysiphe graminis f. sp. tritici); experiment: Blumeria graminis f. sp. tritici / wheat / leaf disc preventative (powdery mildew on wheat); format: in vivo; conditions: foliar, wheat leaf segments cv. Kanzler, inoculated 1 day after application, assessed 6-8 days after application, read-out: control of Blumeria graminis f. sp. tritici (percent disease control compared to untreated)
Description: Example B4: Blumeria graminis f. sp. tritici (Erysiphe graminis f. sp. tritici)/Wheat/Leaf Disc Preventative (Powdery Mildew on Wheat) Wheat leaf segments cv. Kanzler are placed on agar in a multiwell plate (24-well format) and sprayed with the formulated test compound diluted in water. The leaf disks are inoculated by shaking powdery mildew infected plants above the test plates 1 day after application. […] […]-192.

[4] = tested on: Phaeosphaeria nodorum (Septoria nodorum); experiment: Phaeosphaeria nodorum (Septoria nodorum) / wheat / leaf disc preventative (glume blotch); format: in vivo; conditions: Parastagonospora nodorum, foliar, wheat leaf segments cv. Kanzler, inoculated 2 days after application, assessed 5-7 days after application, read-out: control of Phaeosphaeria nodorum (percent disease control compared to untreated)
Protocol: Example B6: Phaeosphaeria nodorum (Septoria nodorum)/Wheat/Leaf Disc Preventative (Glume Blotch) Wheat leaf segments cv. Kanzler are placed on agar in a multiwell plate (24-well format) and sprayed with the formulated test compound diluted in water. The leaf disks are inoculated with a spore suspension of the fungus 2 days after application. The inoculated test leaf disks are incubated at 20° C. and 75% rh under a light regime of 12 h light/12 h darkness in a climate cabinet and the activity of a compound is assessed as percent disease control compared to untreated when an appropriate level of disease damage appears in untreated check leaf disks (5-7 days after application). […] […]-190.

[5] = tested on: Monographella nivalis (Microdochium nivale); experiment: Monographella nivalis (Microdochium nivale) / liquid culture (foot rot cereals); format: cell-based; conditions: PDB potato dextrose broth, 24° C., 4-5 days after application, read-out: control of Monographella nivalis (inhibition of growth, photometric)
Method in brief: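 Growth inhibition measured by photometry 4-5 days post-application at 24° C. Compound was dispensed as DMSO solution, then PDB broth containing conidia from cryogenic storage was added.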

[6] = tested on: Mycosphaerella arachidis (Cercospora arachidicola); experiment: Mycosphaerella arachidis (Cercospora arachidicola) / liquid culture (early leaf spot); format: cell-based; conditions: PDB potato dextrose broth, 24° C., 4-5 days after application, read-out: control of Mycosphaerella arachidis (inhibition of growth, photometric)
Protocol: Example B8: Mycosphaerella arachidis (Cercospora arachidicola)/Liquid Culture (Early Leaf Spot) Conidia of the fungus from cryogenic storage are directly mixed into nutrient broth (PDB potato dextrose broth). After placing a (DMSO) solution of test compound into a microtiter plate (96-well format), the nutrient broth containing the fungal spores is added. The test plates are incubated at 24° C. and the inhibition of growth is determined photometrically 4-5 days after application. […] […]-180.

[7] = tested on: Puccinia recondita f. sp. tritici; experiment: Puccinia recondita f. sp. tritici / wheat / leaf disc preventative (brown rust); format: in vivo; conditions: foliar, wheat leaf segments cv. Kanzler, inoculated 1 day after application, assessed 7-9 days after application, read-out: control of Puccinia recondita f. sp. tritici, preventative (percent disease control compared to untreated)
Method in brief: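 Wheat leaf segments (cv. Kanzler) on agar were sprayed with formulated compound, then inoculated with spores 1 day later. Segments were incubated at 19 °C, 75% rh with 12 h light/dark. Percent disease control versus untreated was scored 7–9 days after application.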

[8] = tested on: Magnaporthe grisea (Pyricularia oryzae); experiment: whole plant or invertebrate; format: in vivo; conditions: foliar, read-out: control of Magnaporthe grisea (percent disease control compared to untreated)
Pyrenophora teres = Pyrenophora teres / barley / leaf disc preventative (net blotch); format: in vivo; conditions: foliar, barley leaf segments cv. Hasso, inoculated 2 days after application, assessed 5-7 days after application, read-out: control of Pyrenophora teres (disease control compared to untreated)
Protocol: Example B13: Pyrenophora teres/Barley/Leaf Disc Preventative (Net Blotch) Barley leaf segments cv. Hasso are placed on agar in a multiwell plate (24-well format) and sprayed with the formulated test compound diluted in water. The leaf segments are inoculated with a spore suspension of the fungus 2 days after application. The inoculated leaf segments are incubated at 20° C. and 65% rh under a light regime of 12 h light/12 h darkness in a climate cabinet and the activity of a compound is assessed as disease control compared to untreated when an appropriate level of disease damage appears in untreated check leaf segments (5-7 days after application). […] […]-185.

[9] = tested on: Mycosphaerella graminicola (Septoria tritici); experiment: Mycosphaerella graminicola (Septoria tritici) / liquid culture (Septoria blotch); format: cell-based; conditions: Zymoseptoria tritici, PDB potato dextrose broth, 24° C., 4-5 days after application, read-out: control of Mycosphaerella graminicola (inhibition of growth, photometric)
Method in brief: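 Fungal growth inhibition was read photometrically 4-5 days after application. Compound was dosed from a DMSO solution into liquid cultures of spores in potato dextrose broth, incubated at 24° C.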

COc1ccc(NCC(O)CO)nc1C(=O)NCC(C)(C)C (stereo not drawn) [Compound P-42, 6-(2,3-dihydroxypropylamino)-N-(2,2-dimethylpropyl)-3-methoxy-pyridine-2-carboxamide]
≥ 80%: inhibition at 20 ppm [1] | inhibition at 20 ppm [2]

COc1ccc(Nc2cc(F)cc(F)c2)nc1C(=O)NCC1(C(F)(F)F)CC1 [Compound P-62, 6-(3,5-difluoroanilino)-3-methoxy-N-[[1-(trifluoromethyl)cyclopropyl]methyl]pyridine-2-carboxamide]
≥ 80%: pest or weed control at 200 ppm (Alternaria solani) | inhibition at 20 ppm [2] | pest or weed control at 200 ppm [3] | pest or weed control at 200 ppm [4] | inhibition at 20 ppm [5] | inhibition at 20 ppm [6] | pest or weed control at 200 ppm [7] | pest or weed control at 200 ppm [8] | pest or weed control at 200 ppm (Pyrenophora teres) | inhibition at 20 ppm [9]

CC(C)(C)NC(=O)c1cccc(Nc2cc(F)cc(F)c2)n1 [Compound P-112, N-tert-butyl-6-(3,5-difluoroanilino)pyridine-2-carboxamide]
≥ 80%: pest or weed control at 200 ppm (Alternaria solani) | inhibition at 20 ppm [1] | inhibition at 20 ppm [2] | pest or weed control at 200 ppm [3] | pest or weed control at 200 ppm [4] | inhibition at 20 ppm [5] | pest or weed control at 200 ppm [7] | pest or weed control at 200 ppm [8] | inhibition at 20 ppm [9]

CC1(NC(=O)c2cccc(Nc3cc(F)cc(F)c3)n2)CCCC1 [Compound P-119, 6-(3,5-difluoroanilino)-N-(1-methylcyclopentyl)pyridine-2-carboxamide]
≥ 80%: inhibition at 20 ppm [1] | inhibition at 20 ppm [2] | inhibition at 20 ppm [5] | pest or weed control at 200 ppm [7] | pest or weed control at 200 ppm [8] | inhibition at 20 ppm [9]

CC1(NC(=O)c2cccc(Nc3cc(F)nc(F)c3)n2)CCCC1 [Compound P-120, 6-[(2,6-difluoro-4-pyridyl)amino]-N-(1-methylcyclopentyl)pyridine-2-carboxamide]
≥ 80%: inhibition at 20 ppm [1] | inhibition at 20 ppm [2] | inhibition at 20 ppm [5] | pest or weed control at 200 ppm [7] | pest or weed control at 200 ppm [8] | inhibition at 20 ppm [9]

COc1ccc(Nc2ccc(C)c(Cl)c2)nc1C(=O)NCC(C)(C)C [Compound P-132, 6-(3-chloro-4-methyl-anilino)-N-(2,2-dimethylpropyl)-3-methoxy-pyridine-2-carboxamide]
≥ 80%: inhibition at 20 ppm [1] | inhibition at 20 ppm [2] | inhibition at 20 ppm [5] | inhibition at 20 ppm [9]

COc1ccc(Nc2cc(F)cc(Cl)c2)nc1C(=O)NCC(C)(C)C [Compound P-134, 6-(3-chloro-5-fluoro-anilino)-N-(2,2-dimethylpropyl)-3-methoxy-pyridine-2-carboxamide]
≥ 80%: inhibition at 20 ppm [1] | inhibition at 20 ppm [2] | pest or weed control at 200 ppm [3] | inhibition at 20 ppm [5] | pest or weed control at 200 ppm (Pyrenophora teres) | inhibition at 20 ppm [9]

COc1ccc(Nc2ccc(C)c(F)c2)nc1C(=O)NCC(C)(C)C [Compound P-142, N-(2,2-dimethylpropyl)-6-(3-fluoro-4-methyl-anilino)-3-methoxy-pyridine-2-carboxamide]
≥ 80%: inhibition at 20 ppm [1] | inhibition at 20 ppm [2]

COc1ccc(Nc2ccc(C)c(Cl)c2)nc1C(=O)NC(C)(C)C [Compound P-151, N-tert-butyl-6-(3-chloro-4-methyl-anilino)-3-methoxy-pyridine-2-carboxamide]
≥ 80%: inhibition at 20 ppm [1] | inhibition at 20 ppm [2] | inhibition at 20 ppm [5] | pest or weed control at 200 ppm [8] | inhibition at 20 ppm [9]

COc1ccc(Nc2cccc(Cl)c2)nc1C(=O)NC(C)(C)C [Compound P-155, N-tert-butyl-6-(3-chloroanilino)-3-methoxy-pyridine-2-carboxamide]
≥ 80%: inhibition at 20 ppm [1] | inhibition at 20 ppm [2] | inhibition at 20 ppm [5] | pest or weed control at 200 ppm [7] | pest or weed control at 200 ppm [8] | pest or weed control at 200 ppm (Pyrenophora teres) | inhibition at 20 ppm [9]

COc1ccc(Nc2cc(F)cc(F)c2)nc1C(=O)NC(C)C(C)(C)C (stereo not drawn) [Compound P-170, 6-(3,5-difluoroanilino)-3-methoxy-N-(1,2,2-trimethylpropyl)pyridine-2-carboxamide]
≥ 80%: pest or weed control at 200 ppm (Alternaria solani) | inhibition at 20 ppm [1] | inhibition at 20 ppm [2] | pest or weed control at 200 ppm [3] | inhibition at 20 ppm [5] | inhibition at 20 ppm [9]

COc1ccc(Nc2cc(F)nc(F)c2)nc1C(=O)NC(C)(C)C(C)C [Compound P-173, 6-[(2,6-difluoro-4-pyridyl)amino]-3-methoxy-N-(1,1,2-trimethylpropyl)pyridine-2-carboxamide]
≥ 80%: pest or weed control at 200 ppm (Alternaria solani) | inhibition at 20 ppm [1] | inhibition at 20 ppm [2] | pest or weed control at 200 ppm [3] | inhibition at 20 ppm [5] | pest or weed control at 200 ppm [7] | inhibition at 20 ppm [9]

Cc1ccc(Nc2cc(F)cc(F)c2)nc1C(=O)NC1CCC1(C)C (stereo not drawn) [Compound P-175, 6-(3,5-difluoroanilino)-N-(2,2-dimethylcyclobutyl)-3-methyl-pyridine-2-carboxamide]
≥ 80%: inhibition at 20 ppm [1] | inhibition at 20 ppm [2] | inhibition at 20 ppm [5] | inhibition at 20 ppm [9]

COc1ccc(N(C(C)=O)c2cc(F)cc(F)c2)nc1C(=O)NC1CCC1(C)C (stereo not drawn) [Compound P-189, 6-(N-acetyl-3,5-difluoro-anilino)-N-(2,2-dimethylcyclobutyl)-3-methoxy-pyridine-2-carboxamide]
≥ 80%: inhibition at 20 ppm [1] | inhibition at 20 ppm [2] | pest or weed control at 200 ppm [3] | pest or weed control at 200 ppm [4] | inhibition at 20 ppm [5] | pest or weed control at 200 ppm [8] | inhibition at 20 ppm [9]

COc1ccc(Nc2cc(F)cc(F)c2Cl)nc1C(=O)NC(C)(C)C [Compound P-190, N-tert-butyl-6-(2-chloro-3,5-difluoro-anilino)-3-methoxy-pyridine-2-carboxamide]
≥ 80%: inhibition at 20 ppm [1] | inhibition at 20 ppm [2] | pest or weed control at 200 ppm [4] | inhibition at 20 ppm [5] | pest or weed control at 200 ppm [7] | inhibition at 20 ppm [9]

Source: patent publication US12458021B2, “Microbiocidal derivatives” (SYNGENTA CROP PROTECTION AG, priority 2019, dated 2025)
